# According to patent publication US4469706A, “Selective beta-2 adrenergic antagonists for the treatment of glaucoma” (priority 1982, dated 1984):
# Structures can show the parent of a compound that is named as a salt. Where two headings read alike, the source gives them in different places.
# Tests used:
# [1] = tested on: ciliary body adenylate cyclase; assay: Ciliary body adenylate cyclase stimulation; type: biochemical
# Source text: (§1) The discovery that the ciliary process of the mammalian eye contains β2 -adrenergic receptors is based on the technique of measuring adenylate cyclase, an enzyme which synthesizes cyclic AMP from ATP. It has been established that receptor binding of beta adrenergic agonists is associated with a concomitant activation of adenylate cyclase. (Robison, G. A., et al, Cyclic AMP, Academic Press, New York, 1971, and Wolfe, B. B., et al, Annual Reviews of Pharmacology and Toxicology, 17:575-604 (1977)). […] Beta adrenergic sensitive adenylate cyclase activity was thus identified and characterized in the ocular tissues of several mammalian species such as rabbits, cats, dogs, monkeys and humans. After isolation of the ciliary process, adenylate cyclase activity was measured, and its activation by agonists or inhibition by antagonists was measured. […].
# (§2) For ciliary body, maximal stimulation was 15% of the stimulation seen in the ciliary process, and for iris, maximal stimulation was 22% for that seen in the ciliary process. […];
# [2] = target: T1, beta-adrenergic sensitive adenylate cyclase present in mammalian choroid plexus (Felis catus, UniProt Q9TST5); assay: Choroid plexus adenylate cyclase activity; type: biochemical
# T1 construct: are prepared from the various tissues to be studied (e.g., ciliary process, choroid plexus, heart or lung); from tissue; host or cells: choroid plexus (homogenate or washed particulate)
# T1 sequence (Q9TST5 whole entry): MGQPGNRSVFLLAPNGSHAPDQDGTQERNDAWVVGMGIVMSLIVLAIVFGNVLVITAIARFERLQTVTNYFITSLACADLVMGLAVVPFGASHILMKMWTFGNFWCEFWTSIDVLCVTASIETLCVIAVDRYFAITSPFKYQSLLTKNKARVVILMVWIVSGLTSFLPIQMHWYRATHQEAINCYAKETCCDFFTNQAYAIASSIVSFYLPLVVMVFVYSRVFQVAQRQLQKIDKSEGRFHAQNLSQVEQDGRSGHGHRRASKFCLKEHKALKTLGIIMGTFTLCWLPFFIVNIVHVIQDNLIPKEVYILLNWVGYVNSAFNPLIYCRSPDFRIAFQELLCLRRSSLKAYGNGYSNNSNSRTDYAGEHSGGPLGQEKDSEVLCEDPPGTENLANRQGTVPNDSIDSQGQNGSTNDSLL
# iris adenylate cyclase = assay: Iris adenylate cyclase stimulation; type: biochemical
# Source text: as §1, §2
# [3] = target: beta1 -adrenergic receptor present in mammalian heart; details: Table I; Minneman et al; read-out: Kd for IHYP Binding, Heart (E); cited from earlier work
# [4] = target: T2, rabbit ciliary process adenylate cyclase (Oryctolagus cuniculus, UniProt G1TAV7); assay: Rabbit ciliary process beta-adrenergic sensitive adenylate cyclase activity; type: biochemical; details: for Ki: antagonists, inhibition of isoproterenol-stimulated activity, Table I, read-out: Adenylate Cyclase Ki, Ciliary Process Rabbit (B)
# T2 construct: After isolation of the ciliary process, adenylate cyclase activity was measured; from tissue; host or cells: rabbit ciliary process
# T2 sequence (G1TAV7 1-437): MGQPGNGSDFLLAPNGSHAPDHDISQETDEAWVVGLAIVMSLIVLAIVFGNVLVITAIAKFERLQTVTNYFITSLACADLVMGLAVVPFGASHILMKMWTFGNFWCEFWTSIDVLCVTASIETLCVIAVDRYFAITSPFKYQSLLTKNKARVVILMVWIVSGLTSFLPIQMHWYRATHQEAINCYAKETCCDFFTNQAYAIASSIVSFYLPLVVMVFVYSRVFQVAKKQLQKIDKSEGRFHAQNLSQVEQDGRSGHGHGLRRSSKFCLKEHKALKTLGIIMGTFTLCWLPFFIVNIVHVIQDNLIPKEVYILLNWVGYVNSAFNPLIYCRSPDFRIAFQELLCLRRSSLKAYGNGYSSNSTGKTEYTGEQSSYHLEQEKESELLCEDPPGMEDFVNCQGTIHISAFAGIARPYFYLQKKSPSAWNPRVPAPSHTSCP
# heart adenylate cyclase [5] = assay: Heart adenylate cyclase activation and inhibition; type: biochemical, mammalian; details: antagonists; Table I; ** data from the present inventor, method (a); read-out: Adenylate Cyclase Ki, Heart (G)
# [6] = tested on: cardioacceleratory effect of isoproterenol; details: subcutaneous antagonist 30 minutes before 3 micrograms/kg subcutaneous isoproterenol; rabbits
# [7] = tested on: intraocular pressure in rabbit eyes
# [8] = target: T3, human ciliary process beta-adrenergic receptors (Homo sapiens, UniProt P07550); assay: biochemical
# T3 construct: ciliary process from human donor eyes was assayed biochemically; from tissue; host or cells: ciliary process from human donor eyes
# T3 sequence (P07550 whole entry): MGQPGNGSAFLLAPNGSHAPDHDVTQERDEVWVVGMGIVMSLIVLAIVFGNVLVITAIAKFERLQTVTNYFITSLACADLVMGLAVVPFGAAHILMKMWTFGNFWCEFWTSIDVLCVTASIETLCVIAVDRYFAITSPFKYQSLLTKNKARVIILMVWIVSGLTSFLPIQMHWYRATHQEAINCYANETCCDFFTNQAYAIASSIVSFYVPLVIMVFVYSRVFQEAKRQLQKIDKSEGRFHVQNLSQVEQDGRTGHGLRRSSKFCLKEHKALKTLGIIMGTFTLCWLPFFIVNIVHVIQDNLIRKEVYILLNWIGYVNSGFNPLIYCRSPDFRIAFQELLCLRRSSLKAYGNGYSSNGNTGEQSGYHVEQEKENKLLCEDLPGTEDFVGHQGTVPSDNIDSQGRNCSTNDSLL
# [9] = tested on: intraocular pressure above normal; assay: Alpha chymotrypsin-induced glaucoma in rabbits; type: in vivo, rabbit; details: compared with timolol
# Source text: This effect is also observed under conditions of elevated pressure.
# heart adenylate cyclase [10] = target: T4, heart adenylate cyclase (Rattus norvegicus, UniProt P18090); details: agonists; Table I; Minneman et al; NE = no effect as agonist; cited from earlier work
# T4 construct: are prepared from the various tissues to be studied (e.g., ciliary process, choroid plexus, heart or lung); from tissue; host or cells: heart (homogenate or washed particulate)
# T4 sequence (P18090 whole entry): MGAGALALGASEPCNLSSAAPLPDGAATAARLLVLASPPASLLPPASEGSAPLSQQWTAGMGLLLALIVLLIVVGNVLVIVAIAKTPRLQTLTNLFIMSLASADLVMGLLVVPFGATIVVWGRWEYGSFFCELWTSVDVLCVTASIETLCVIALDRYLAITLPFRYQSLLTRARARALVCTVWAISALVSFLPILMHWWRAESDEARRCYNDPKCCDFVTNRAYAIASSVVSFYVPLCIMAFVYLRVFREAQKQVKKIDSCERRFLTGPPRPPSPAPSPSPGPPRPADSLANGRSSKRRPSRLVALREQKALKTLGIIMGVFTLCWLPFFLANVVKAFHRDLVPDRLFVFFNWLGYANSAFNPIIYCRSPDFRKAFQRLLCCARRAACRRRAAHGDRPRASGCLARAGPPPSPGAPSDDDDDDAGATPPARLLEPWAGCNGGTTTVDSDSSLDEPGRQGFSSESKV
# [11] = tested on: rabbit ciliary process adenylate cyclase; assay: Rabbit ciliary process beta-adrenergic sensitive adenylate cyclase activity; type: biochemical; details: Table I columns B (rabbit ciliary process) and G
# [12] = antagonists, Table I, read-out: Adenylate Cyclase Ki, Choroid Plexus (C)
# [13] = 0.5% topical to ipsilateral eye
# [14] = 0.5% topical, two 50 microliter doses, 2 and 3 hours after application
smiles,measurement,setting,value
CC(C)NCC(O)c1ccc(O)c(O)c1 (stereo not drawn) [Isoproterenol],"Maximal stimulation, of the stimulation seen in the ciliary process",[1],15%
same,EC50,[2],140 nM
same,"Maximal stimulation, of that seen in the ciliary process",iris adenylate cyclase,22%
"CC(=O)Nc1ccc(OCC(O)CNC(C)C)cc1 (stereo not drawn) [Practolol, practolol]",Kd,[3],1100 nM
same,Ki,[4],39000 nM
same,Ki,heart adenylate cyclase [5],5500 nM
same,Ki,[2]; [12],8900 nM
"CC(C)(C)NC[C@H](O)COc1nsnc1N1CCOCC1 [Timolol, timolol]",Ki,[4],6.4 nM
same,IC50 for blocking isoproterenol-induced increase in heart rate,[6],2.2 micrograms/kg
same,Change of IOP in the contralateral eye,[7]; [13],significant decrease in IOP in the contralateral eye
same,Change of IOP in ipsilateral eyes compared to predrug readings,[7]; [14],significant decrease in IOP in ipsilateral eyes
same,Change of IOP in ipsilateral eyes compared to predrug readings,"[7]; 0.5% topical, 1 hour after application",also caused a significant decrease at 1 hour
same,Pupillary diameter and overt ocular toxicity,"[7]; rabbit, in vivo",no significant changes in pupillary diameter nor overt ocular toxicity
same,Ki,heart adenylate cyclase [5],20 nM
"Cc1ccc(C(O)C(C)NC(C)C)cc1 (stereo not drawn) [H35/25, 1(4'-methylphenyl)-2-isopropyl amino propanol]",Ki,[4],700 nM
same,Ki,[2],140 nM
same,Ki,"[8]; antagonists, inhibition of isoproterenol-stimulated activity, Table I column A, read-out: Adenylate Cyclase Ki, Ciliary Process Human (A)",740 nM
same,beta2/beta1 Potency Ratio,"[8]; human ciliary process, Table 3",8.8
same,Ki,"[8]; human ciliary process, Table 3, read-out: Ki for Isoproterenol-Stimulated Adenylate Cyclase",740 nM
same,Ki,"[8]; inhibition of isoproterenol stimulation of human ciliary process adenylate cyclase, read-out: calculated inhibitory constant (Ki)",740 nM
"Cc1ccc(OCC(O)C(C)NC(C)C)c2c1CCC2 (stereo not drawn) [ICI 118,551]",Ki,[4],3 nM
same,IC50 for blocking isoproterenol-induced increase in heart rate,[6],140 micrograms/kg
same,Ocular irritative effects,"[7]; rabbit, in vivo",little ocular irritative effects
same,Decrease in intraocular pressure compared with timolol,"[7]; topical 50 μl of a 1% solution, 6 hours, N=12 double blind crossover",both a greater decrease as well as a more prolonged decrease in intraocular pressure than did timolol
same,Ki,heart adenylate cyclase [5],1760 nM
"CC(C)NCC(O)COc1ccc(CC(N)=O)cc1 (stereo not drawn) [Atenolol, atenolol]",Ki,[4],21000 nM
same,Ki,heart adenylate cyclase [5],2700 nM
same,Ki,[2]; [12],5800 nM
"CC(C)(C)NCC(O)CON=C1c2ccccc2-c2ccccc21 (stereo not drawn) [IPS 339, (t-butyl-amino 3-ol-2-propyl) oximino-9 fluorene, hydrochloride]",Kd,[3],10 nM
same,Change of IOP in the contralateral eye,[7]; [13],significant decrease in IOP in the contralateral eye
same,Magnitude of contralateral IOP effect compared with timolol,[7]; [13],somewhat less for IPS 339 than for timolol
same,Change of IOP in ipsilateral eyes compared to predrug readings,[7]; [14],significant decrease in IOP in ipsilateral eyes
same,Extent of IOP decrease compared with timolol,"[7]; 0.5% topical, at 3 hours",significantly more than that caused by timolol
same,Pupillary diameter and overt ocular toxicity,"[7]; rabbit, in vivo",no significant changes in pupillary diameter nor overt ocular toxicity
same,Ki,heart adenylate cyclase [5],1120 nM
same,Intraocular pressure above normal,[9],decreased significantly
same,Ki,[2],1.9 nM
CNC[C@H](O)c1ccc(O)c(O)c1 [Epinephrine],EC50,[4],2.4 µM
same,"Adenylate Cyclase Ka, Heart (G)",heart adenylate cyclase [10],1.5 µM
same,EC50,[2],1550 nM
COc1ccc(OC)c(C(O)C(C)NC(C)(C)C)c1 (stereo not drawn) [Butoxamine],Kd,[3],7030 nM
same,Ki,[4],1530 nM
same,β2/β1 potency ratio (Ki heart/Ki ciliary process),[11],9.8
same,Ki,heart adenylate cyclase [5],15000 nM
same,Ki,[2]; [12],1500 nM
NC[C@H](O)c1ccc(O)c(O)c1 [Norepinephrine],Kd,[3],820 nM
same,EC50,[4],29 µM
same,EC50,"[2]; agonists, Table I, read-out: Adenylate Cyclase Ka, Choroid Plexus (C)",25000 nM
